Assay results from US5698691A, “Condensed cyclic compounds and their use” (Takeda Chemical Industries, Ltd., priority 1993, dated 1997).

What was measured:
squalene synthetase [1] = molecular target: T1, squalene synthetase (Rattus norvegicus, UniProt Q02769); assay: Squalene synthetase inhibitory activity, rat-derived enzyme (liver microsome fraction); type: biochemical; conditions: SD rat liver microsome fraction; 5 uM [1-3H] farnesyl pyrophosphate, 37° C., 45 minutes
T1 construct: from tissue; host or cells: rat liver microsome fraction (SD male rat, 6 weeks old)
T1 sequence (Q02769 1-416): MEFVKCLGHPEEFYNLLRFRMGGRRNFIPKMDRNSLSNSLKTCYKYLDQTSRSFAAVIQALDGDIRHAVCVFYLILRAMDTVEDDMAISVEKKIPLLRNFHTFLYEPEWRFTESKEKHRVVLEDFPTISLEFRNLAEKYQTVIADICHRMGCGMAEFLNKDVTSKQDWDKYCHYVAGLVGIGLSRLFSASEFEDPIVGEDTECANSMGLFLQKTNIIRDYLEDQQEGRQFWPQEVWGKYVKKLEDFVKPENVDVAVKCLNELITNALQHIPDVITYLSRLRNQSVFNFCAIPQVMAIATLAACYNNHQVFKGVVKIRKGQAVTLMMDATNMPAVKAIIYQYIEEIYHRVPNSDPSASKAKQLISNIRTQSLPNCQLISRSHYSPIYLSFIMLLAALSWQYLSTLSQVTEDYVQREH
Experimental: (§1) Assay Method of Squalene Synthetase Inhibitory Activity
(§2) The squalene synthetase inhibitory activity was assayed as follows with the enzyme solutions described in the subsequent Experimental Examples 1 and 2.
(§3) More specifically, an enzyme solution (protein content 0.8 ug) prepared in Experimental Example 1 or 2 was added to a solution (total volume 50 μl)) containing 5 uM [1-^3 H] farnesyl pyrophosphate (specific activity 25 uCi/mole), 1 mM NADPH, 5 mM MgCl2, 6 mM glutathione, a 100 mM buffer solution of potassium phosphate (pH 7.4) and a test drug (used as an aqueous solution or a DMSO solution), then the reaction was allowed to proceed at 37° C. for 45 minutes. To the reaction mixture was added 150 μl of a mixture of chloroform and methanol (1:2) to suspend the reaction, followed by adding 50 μl of chloroform and 50 μl of a 3N aqueous solution of sodium hydroxide. 50 μl of the chloroform layer (lower layer) containing the reaction mixture having squalene as the principal component and 3 ml of toluene-based liquid scintillator were mixed, and its radioactivity was determined by means of a liquid scintillation counter.
(§4) The squalene synthetase inhibitory activity was expressed in terms of the concentration inhibiting by 50% the radioactivity taken into the chloroform layer (IC50, molar concentration (M)).
An SD male rat (6 week old) was killed by bleeding, and its liver was excised. About 10 g of the liver was washed with a saline solution cooled with ice, which was then homogenized in 15 ml of an ice-cooled buffer solution [100 mM potassium phosphate (pH 7.4), 15 mM nicotinamide, 2 mM MgCl2 ], followed by centrifugation for 20 minutes (4° C.) with 10000×g. The supernatant layer was separated and subjected to further centrifugation for 90 minutes (4° C.) at 105000×g. The sediment was then suspended in an ice-cooled 100 mM phosphate buffer solution (pH 7.4), which was again subjected to centrifugation for 90 minutes (4° C.) at 105000×g. The sediment thus obtained (microsome fraction) was suspended in an ice-cooled 100 mM potassium phosphate buffer (pH 7.4) (about 40 mg/ml protein concentration, determined with BCA protein assay kit of Pias Co., Ltd.). This suspension was used as the enzyme solution.

squalene synthetase [2] = molecular target: T2, squalene synthetase (Homo sapiens, UniProt P37268); assay: Squalene synthetase inhibitory activity, human-derived enzyme (HepG2 microsome fraction); type: biochemical; conditions: 5 uM [1-3H] farnesyl pyrophosphate, 37° C., 45 minutes
T2 construct: endogenous in cells; host or cells: HepG2 (human hepatic carcinoma) cells, microsome fraction
T2 sequence (P37268 1-417): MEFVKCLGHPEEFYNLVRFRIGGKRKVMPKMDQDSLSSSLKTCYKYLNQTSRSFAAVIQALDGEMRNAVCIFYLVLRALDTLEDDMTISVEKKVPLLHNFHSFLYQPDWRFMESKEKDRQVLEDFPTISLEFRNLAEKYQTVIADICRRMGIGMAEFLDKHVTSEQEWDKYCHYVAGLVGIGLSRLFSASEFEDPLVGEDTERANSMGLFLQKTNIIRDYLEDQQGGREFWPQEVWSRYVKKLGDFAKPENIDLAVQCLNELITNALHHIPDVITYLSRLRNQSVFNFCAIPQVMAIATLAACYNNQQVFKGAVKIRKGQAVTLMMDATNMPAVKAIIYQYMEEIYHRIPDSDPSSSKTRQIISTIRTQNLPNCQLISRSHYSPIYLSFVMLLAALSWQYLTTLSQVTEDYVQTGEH
Experimental: as §1, §2, §3, §4
Human hepatic carcinoma cells HepG2 (about 1×10^9 cells) obtained by incubation in a Dulbecco-modified Eagle's medium (37° C. in the presence of 5% CO2) were suspended in 10 ml of an ice-cooled buffer solution [100 mM potassium phosphate buffer (pH 7.4), 30 mM nicotinamide and 2.5 mM MgCl2 ]. The cells were crashed by means of ultrasonication (for 30 seconds, twice). From the sonicate thus obtained, the microsome fraction was obtained by the same procedure as in Experiment Example 1, which was suspended in an ice-cooled 100 mM potassium phosphate buffer (pH 7.4) (about 4 mg/ml protein concentration). This suspension was used as the enzyme solution. The results are shown in [Table 4].

Row | SMILES | IC50 (squalene synthetase [1]) [nM] | IC50 (squalene synthetase [2]) [nM]
1 | COc1ccccc1[C@H]1O[C@H](CC(=O)O)C(=O)N(CC(C)(C)C)c2sc(Cl)cc21 (relative stereo) [Example 33, 3,5-trans-7-Chloro-5-(2-methoxyphenyl)-1-neopentyl-2-oxo-1,2,3,5-tetrahydro-4,1-thieno[2,3-e]oxazepine-3-acetic acid] | 88 | 73
2 | COc1cccc([C@H]2S[C@H](Cc3nnn[nH]3)C(=O)N(CC(C)(C)C)c3ccc(Cl)cc32)c1OC [Example 59, (3R,5S)-7-Chloro-5-(2,3-dimethoxyphenyl)-1-neopentyl-3-(tetrazol-5-yl)methyl-1,2,3,5-tetrahydro-4,1-benzothaizepin-2-one] | 16 | 10
3 | COc1cccc([C@H]2S[C@H](CC(=O)O)C(=O)N(CC(C)(C)C)c3ccc(Cl)cc32)c1OC [Example 43, (3R,5S)-7-Chloro-5-(2,3-dimethoxyphenyl)-1-neopentyl-2-oxo-1,2,3,5-tetrahydro-4,1-benzothiazepine-3-acetic acid] | 9.3 | 5.9
4 | CC(C)(C)CN1C(=O)N(CC(=O)O)CC(c2ccccc2Cl)c2cc(Cl)ccc21 (centres unmarked) [Example 53, 7-Chloro-5-(2-chlorophenyl)-1-neopentyl-2-oxo-1,2,4,5-tetrahydro-3H-1,3-benzodiazepine-3-acetic acid] | 290 | 130
5 | COc1ccc([C@H]2S[C@H](CC(=O)O)C(=O)N(CC(C)(C)C)c3ccc(Cl)cc32)c(OC)c1 [Example 51, (3R,5S)-7-Chloro-5-(2,4-dimethoxyphenyl)-1-neopentyl-2-oxo-1,2,3,5-tetrahydro-4,1-benzothiazepine-3-acetic acid] | 21 | 18
6 | CC(C)CN1C(=O)[C@@H](CC(=O)O)N[C@H](c2ccccc2Cl)c2cc(Cl)ccc21 [Example 14, (3R,5S)-1-Isobutyl-7-chloro-5-(2-chlorophenyl)-2,3,4,5-tetrahydro-2-oxo-1H-1,4-benzodiazepine-3-acetic acid] | 430 | 160
7 | CC(C)CN1C(=O)C(CC(=O)O)CC(c2ccccc2Cl)c2cc(Cl)ccc21 (centres unmarked) [Example 26, 7-Chloro-5-(2-chlorophenyl)-1-isobutyl-2-oxo-2,3,4,5-tetrahydro-1H-[1]-benzazepine-3-acetic acid] | 390 | 120
8 | CC(C)(C)CN1C(=O)[C@@H](CC(=O)NCC(=O)O)S[C@H](c2ccccc2Cl)c2cc(Cl)ccc21 (relative stereo) [Example 23, N-[3,5-trans-7-Chloro-5-(2-chlorophenyl)-1-neopentyl-2-oxo-1,2,3,5-tetrahydro-4,1-benzothiazepine-3-acetyl]glycine] | 22 | 13

The remaining lines, values ahead:

Row | IC50 (squalene synthetase [1]) [nM] | IC50 (squalene synthetase [2]) [nM] | SMILES
9 | 26 | 13 | COc1ccccc1[C@H]1S[C@H](CC(=O)O)C(=O)N(CC(C)C)c2ccc(Cl)cc21 (relative stereo) [Example 10-7, 3,5-trans-7-Chloro-5-(2-methoxyphenyl)-1-isobutyl-2-oxo-1,2,3,5-tetrahydro-4,1-benzothiazepine-3-acetic acid]
10 | – | 2000 | COC(=O)C[C@H]1S[C@H](c2ccccc2OC)c2cc(Cl)ccc2N(CC(C)C)C1=O (relative stereo) [Example 8-1, 3,5-trans-7-Chloro-5-(2-methoxyphenyl)-1-isobutyl-2-oxo-1,2,3,5-tetrahydro-4,1-benzothiazepine-3-acetic acid methyl ester]
11 | 51 | 25 | CC(C)CN1C(=O)[C@@H](CC(=O)O)S[C@H](c2ccccc2Cl)c2cc(Cl)ccc21 (relative stereo) [Example 10-5, 3,5-trans-7-Chloro-5-(2-chlorophenyl)-1-isobutyl-2-oxo-1,2,3,5-tetrahydro-4,1-benzothiazepine-3-acetic acid]
12 | 180 | 39 | CC(C)(C)CN1C(=O)[C@@H](CC(=O)O)S[C@H](c2ccccc2Cl)c2cc(Cl)ccc21 (relative stereo) [Example 9, 3,5-trans-7-Chloro-5-(2-chlorophenyl)-1-neopentyl-2-oxo-1,2,3,5-tetrahydro-4,1-benzothiazepine-3-acetic acid]
13 | 39 | 31 | CCCN1C(=O)[C@@H](CC(=O)O)S[C@H](c2ccccc2OC)c2cc(Cl)ccc21 (relative stereo) [Example 10-6]
14 | 23 | 13 | COc1ccccc1C1SC(CC(=O)O)C(=O)N(CC(C)(C)C)c2ccc(Cl)cc21 (stereo not drawn) [Example 10-8, 3,5-trans-7-Chloro-5-(2-methoxyphenyl)-1-neopentyl-2-oxo-1,2,3,5-tetrahydro-4,1-benzothiazepine-3-acetic acid]
15 | 62 | 42 | CCCN1C(=O)[C@@H](CC(=O)O)S[C@H](c2ccccc2Cl)c2cc(Cl)ccc21 (relative stereo) [Example 10-2]
